Our source for the IC50 values is patent publication US20260022142A1, “MACROCYCLIC IMMUNOMODULATORS” (Bristol-Myers Squibb Company, priority 2022, published 2026).

Numbered stars: 1 amine (or outer) side, 2 acyl side, 3 side chain; on linkers, the order of the positions; unused ones are H or OH. Bridge positions count the residues as written; N and C are the ends. Square brackets hold non-standard residues; d marks the D form. Peptide text beside a SMILES is read from it. * marks the point of attachment. ξ: configuration not given here. Bip = N[C@@H](Cc1ccc(-c2ccccc2)cc1)C(=O)O; Phe(3-Me) = Cc1cccc(C[C@H](N)C(=O)O)c1; X5 = CC(C)(CCN)[C@H](N[*:1])C(=O)[*:2]; Val(3-OH) = CC(C)(O)[C@H](N)C(=O)O; Val(3-F) = CC(C)(F)[C@H](N)C(=O)O; 4Pal = N[C@@H](Cc1ccncc1)C(=O)O; Cha = N[C@@H](CC1CCCCC1)C(=O)O; CH2COCH2 = O=C(C[*:1])C[*:2]; Carboxymethyl = O=C(O)C*; Orn = NCCC[C@H](N)C(=O)O; Aun = NCCCCCCCCCCC(=O)O; Dab = NCC[C@H](N)C(=O)O; Piv = CC(C)(C)C(=O)*; ξV = CC(C)C(N)C(=O)O

The target of this experiment is T1, PD-1/PD-L1 interaction (PE-labeled human PD-L1-Ig binding to Jurkat cell line over-expressing human PD-1) (Homo sapiens, UniProt Q15116).
T1 construct: expressed in transfected cells; host or cells: Jurkat
T1 sequence (Q15116 25-288): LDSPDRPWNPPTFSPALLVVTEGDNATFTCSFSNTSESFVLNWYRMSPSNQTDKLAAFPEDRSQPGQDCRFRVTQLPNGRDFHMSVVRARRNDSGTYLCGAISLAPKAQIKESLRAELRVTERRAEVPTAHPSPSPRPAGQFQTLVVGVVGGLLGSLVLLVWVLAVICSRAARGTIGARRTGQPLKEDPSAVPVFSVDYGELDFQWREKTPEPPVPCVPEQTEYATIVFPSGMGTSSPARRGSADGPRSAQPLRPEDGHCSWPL
Kind of experiment: Jurkat-PD-1 Cell Binding High-Content Screening Assay (CBA). It counts as cell-based. The note with it: Jurkat cell line over-expressing human PD-1; PE-labeled PD-L1-Ig 20 nM final; read-out: Jurkat hPD1-PDL1 IC50. The gist of the method: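 Human PD-L1-Ig carrying a covalent PE label on its Ig tag serves as the probe, applied at 20 nM final to compound-treated (2 h, 37° C) Jurkat-hPD-1 cells in medium with 10% fetal calf serum. After one hour, fixation and nuclear staining precede high-content image analysis.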
Regarding `Cc1cccc(C[C@@H]2NC(=O)[C@H](CC(=O)O)NC(=O)[C@H](Cc3ccc(OCC(=O)O)cc3)NC(=O)[C@H](CCCNC(=N)N)NC(=O)CSC[C@@H](C(=O)N[C@@H](CCN)C(=O)NCCCCCCCCCCC(=O)O)NC(=O)[C@H](CO)NC(=O)[C@H](C(C)(C)O)NC(=O)[C@H](CC3CCCCC3)NC(=O)[C@H](CCN)NC(=O)[C@@H](CC(C)C)NC(=O)[C@H](CCCN)NC(=O)[C@H](Cc3ccc(OCC(=O)O)cc3)NC(=O)[C@H](Cc3ccc(-c4ccccc4)cc3)NC(=O)[C@H](Cc3ccc(O)cc3)NC2=O)c1` [Compound 2111] ({CH2CO}-RY(Carboxymethyl)D[Phe(3-Me)]Y[Bip]Y(Carboxymethyl)[Orn][dL][Dab][Cha][Val(3-OH)]SC[Dab][Aun]-OH; thioether N-14), the IC50 (in general, the concentration needed to halve the response being measured) is 6.4 nM.

For `Cc1cccc(C[C@@H]2NC(=O)[C@H](CC(=O)O)NC(=O)[C@H](Cc3ccc(OCC(=O)O)cc3)NC(=O)[C@H](CCNC(=O)C(C)(C)C)NC(=O)CSC[C@@H](C(=O)N[C@@H](CCN)C(=O)NCCCCCCCCCCC(=O)O)NC(=O)[C@H](CCC(N)=O)NC(=O)[C@H](C(C)C)NC(=O)[C@H](CC3CCCCC3)NC(=O)[C@H](CCN)NC(=O)[C@@H](CC(C)C)NC(=O)[C@H](CCCN)NC(=O)[C@H](Cc3ccc(OCC(=O)O)cc3)NC(=O)[C@H](Cc3ccc(-c4ccccc4)cc3)NC(=O)[C@H](Cc3ccc(O)cc3)NC2=O)c1` [Compound 2112] ({CH2CO}-[Dab](Piv)Y(Carboxymethyl)D[Phe(3-Me)]Y[Bip]Y(Carboxymethyl)[Orn][dL][Dab][Cha]VQC[Dab][Aun]-OH; thioether N-14), the half-inhibitory concentration (IC50) came to 5.5 nM.

For `Cc1cccc(C[C@@H]2NC(=O)[C@H](CC(=O)O)NC(=O)[C@H](Cc3ccc(OCC(=O)O)cc3)NC(=O)[C@H](CCCNC(=N)N)NC(=O)CSC[C@@H](C(=O)N[C@@H](CCN)C(=O)NCCCCCCCCCCC(=O)O)NC(=O)[C@H](CCC(N)=O)NC(=O)[C@H](C(C)C)NC(=O)[C@H](CC3CCCCC3)NC(=O)[C@H](CCN)NC(=O)[C@@H](CC(C)C)NC(=O)[C@H](CCCN)NC(=O)[C@H](Cc3ccc(OCC(=O)O)cc3)NC(=O)[C@H](Cc3ccc(-c4ccccc4)cc3)NC(=O)[C@H](C(C)(C)O)NC2=O)c1` [Compound 2113] ({CH2CO}-RY(Carboxymethyl)D[Phe(3-Me)][Val(3-OH)][Bip]Y(Carboxymethyl)[Orn][dL][Dab][Cha]VQC[Dab][Aun]-OH; thioether N-14), the IC50 came out at 8.7 nM.

For `CC(=O)COc1ccc(C[C@@H]2NC(=O)[C@H](Cc3cccc(C)c3)NC(=O)[C@H](CC(=O)O)NC(=O)[C@H](Cc3ccc(OCC(=O)O)cc3)NC(=O)[C@H](CCCNC(=N)N)NC(=O)CSC[C@@H](C(=O)N[C@@H](CCN)C(=O)NCCCCCCCCCCC(=O)O)NC(=O)[C@H]([C@@H](C)O)NC(=O)[C@H](C(C)C)NC(=O)[C@H](CC3CCCCC3)NC(=O)[C@H](CCN)NC(=O)[C@@H](CC(C)C)NC(=O)[C@H](CCCN)NC(=O)[C@H](Cc3ccncc3)NC(=O)[C@H](Cc3ccc(-c4ccccc4)cc3)NC2=O)cc1` [Compound 2114] ({CH2CO}-RY(Carboxymethyl)D[Phe(3-Me)]Y(CH2COCH2)[Bip][4Pal][Orn][dL][Dab][Cha]VTC[Dab][Aun]-OH; thioether N-14), the half-inhibitory concentration (IC50) came out at 10 nM.

On to `Cc1cccc(C[C@@H]2NC(=O)[C@H](CC(=O)O)NC(=O)[C@H](Cc3ccc(OCC(=O)O)cc3)NC(=O)[C@H](CCCNC(=N)N)NC(=O)CSC[C@@H](C(=O)N[C@@H](CCN)C(=O)NCCCCCCCCCCC(=O)O)NC(=O)[C@H](CO)NC(=O)[C@H](C(C)C)NC(=O)[C@H](CC3CCCCC3)NC(=O)[C@H](CCN)NC(=O)[C@@H](CC(C)C)NC(=O)[C@H](CCCN)NC(=O)[C@H](Cc3ccncc3)NC(=O)[C@H](Cc3ccc(-c4ccccc4)cc3)NC(=O)[C@H](Cc3ccc(OCC(=O)O)cc3)NC2=O)c1` [Compound 2115] ({CH2CO}-RY(Carboxymethyl)D[Phe(3-Me)]Y(Carboxymethyl)[Bip][4Pal][Orn][dL][Dab][Cha]VSC[Dab][Aun]-OH; thioether N-14), for which the IC50 came out at 29.3 nM.

Turning to `Cc1cccc(C[C@@H]2NC(=O)[C@H](CC(=O)O)NC(=O)[C@H](Cc3ccc(OCC(=O)O)cc3)NC(=O)[C@H](CCCNC(=N)N)NC(=O)CSC[C@@H](C(=O)N[C@H](C(=O)NCCCCCCCCCCC(=O)O)C(C)(C)CCN)NC(=O)[C@H]([C@@H](C)O)NC(=O)[C@H](C(C)C)NC(=O)[C@H](CC3CCCCC3)NC(=O)[C@H](CCN)NC(=O)[C@@H](CC(C)C)NC(=O)[C@H](CCCN)NC(=O)[C@H](Cc3ccc(OCC(=O)O)cc3)NC(=O)[C@H](Cc3ccc(-c4ccccc4)cc3)NC(=O)[C@H](Cc3ccc(O)cc3)NC2=O)c1` [Compound 2116] ({CH2CO}-RY(Carboxymethyl)D[Phe(3-Me)]Y[Bip]Y(Carboxymethyl)[Orn][dL][Dab][Cha]VTC[X5][Aun]-OH; thioether N-14), the IC50 came out at 53.5 nM.

Consider `Cc1cccc(C[C@@H]2NC(=O)[C@H](CC(=O)O)NC(=O)[C@H](Cc3ccc(OCC(=O)O)cc3)NC(=O)[C@H](CCCNC(=N)N)NC(=O)CSC[C@@H](C(=O)N[C@@H](CCNC(=O)C(C)(C)C)C(=O)NCCCCCCCCCCC(=O)O)NC(=O)[C@H]([C@@H](C)O)NC(=O)[C@H](C(C)C)NC(=O)[C@H](CC3CCCCC3)NC(=O)[C@H](CCN)NC(=O)[C@@H](CC(C)C)NC(=O)[C@H](CCCN)NC(=O)[C@H](Cc3ccc(OCC(=O)O)cc3)NC(=O)[C@H](Cc3ccc(-c4ccccc4)cc3)NC(=O)[C@H](Cc3ccc(O)cc3)NC2=O)c1` [Compound 2117] ({CH2CO}-RY(Carboxymethyl)D[Phe(3-Me)]Y[Bip]Y(Carboxymethyl)[Orn][dL][Dab][Cha]VTC[Dab](Piv)[Aun]-OH; thioether N-14), for which the IC50 worked out at 26.3 nM.

For `Cc1cccc(C[C@@H]2NC(=O)[C@H](CC(=O)O)NC(=O)[C@H](Cc3ccc(OCC(=O)O)cc3)NC(=O)[C@H](CCCNC(=N)N)NC(=O)CSC[C@@H](C(=O)N[C@@H](CCN)C(=O)NCCCCCCCCCCC(=O)O)NC(=O)[C@H](C(C)(C)CCN)NC(=O)C(C(C)C)NC(=O)[C@H](CC3CCCCC3)NC(=O)[C@H](CCN)NC(=O)[C@@H](CC(C)C)NC(=O)[C@H](CCCN)NC(=O)[C@H](Cc3ccc(OCC(=O)O)cc3)NC(=O)[C@H](Cc3ccc(-c4ccccc4)cc3)NC(=O)[C@H](Cc3ccc(O)cc3)NC2=O)c1` (stereo partly drawn) [Compound 2118] ({CH2CO}-RY(Carboxymethyl)D[Phe(3-Me)]Y[Bip]Y(Carboxymethyl)[Orn][dL][Dab][Cha][ξV][X5]C[Dab][Aun]-OH; thioether N-14), the IC50 amounted to 126 nM.

Take `Cc1cccc(C[C@@H]2NC(=O)[C@H](CC(=O)O)NC(=O)[C@H](Cc3ccc(OCC(=O)O)cc3)NC(=O)[C@H](CCCNC(=N)N)NC(=O)CSC[C@@H](C(=O)N[C@@H](CCN)C(=O)NCCCCCCCCCCC(=O)O)NC(=O)[C@H](CCNC(=O)C(C)(C)C)NC(=O)[C@H](C(C)C)NC(=O)[C@H](CC3CCCCC3)NC(=O)[C@H](CCN)NC(=O)[C@@H](CC(C)C)NC(=O)[C@H](CCCN)NC(=O)[C@H](Cc3ccc(OCC(=O)O)cc3)NC(=O)[C@H](Cc3ccc(-c4ccccc4)cc3)NC(=O)[C@H](Cc3ccc(O)cc3)NC2=O)c1` [Compound 2119] ({CH2CO}-RY(Carboxymethyl)D[Phe(3-Me)]Y[Bip]Y(Carboxymethyl)[Orn][dL][Dab][Cha]V[Dab](Piv)C[Dab][Aun]-OH; thioether N-14): the IC50 is 10.3 nM.

On to `Cc1cccc(C[C@@H]2NC(=O)[C@H](CC(=O)O)NC(=O)[C@H](Cc3ccc(OCC(=O)O)cc3)NC(=O)[C@H](CCCNC(=N)N)NC(=O)CSC[C@@H](C(=O)N[C@@H](CCN)C(=O)NCCCCCCCCCCC(=O)O)NC(=O)[C@H](CO)NC(=O)[C@H](C(C)(C)F)NC(=O)[C@H](CC3CCCCC3)NC(=O)[C@H](CCN)NC(=O)[C@@H](CC(C)C)NC(=O)[C@H](CCCN)NC(=O)[C@H](Cc3ccc(OCC(=O)O)cc3)NC(=O)[C@H](Cc3ccc(-c4ccccc4)cc3)NC(=O)[C@H](Cc3ccc(O)cc3)NC2=O)c1` [Compound 2121] ({CH2CO}-RY(Carboxymethyl)D[Phe(3-Me)]Y[Bip]Y(Carboxymethyl)[Orn][dL][Dab][Cha][Val(3-F)]SC[Dab][Aun]-OH; thioether N-14), for which the IC50 worked out at 8.3 nM.

Take `Cc1cccc(C[C@@H]2NC(=O)[C@H](CC(=O)O)NC(=O)[C@H](Cc3ccc(OCC(=O)O)cc3)NC(=O)[C@H](CCCNC(=N)N)NC(=O)CSC[C@@H](C(=O)N[C@@H](CCN)C(=O)NCCCCCCCCCCC(=O)O)NC(=O)[C@H](CCC(N)=O)NC(=O)[C@H](C(C)C)NC(=O)[C@H](CC3CCCCC3)NC(=O)[C@H](CCN)NC(=O)[C@@H](CC(C)C)NC(=O)[C@H](CCCN)NC(=O)[C@H](Cc3ccc(OCC(=O)O)cc3)NC(=O)[C@H](Cc3ccc(-c4ccccc4)cc3)NC(=O)[C@H](C(C)(C)F)NC2=O)c1` [Compound 2122] ({CH2CO}-RY(Carboxymethyl)D[Phe(3-Me)][Val(3-F)][Bip]Y(Carboxymethyl)[Orn][dL][Dab][Cha]VQC[Dab][Aun]-OH; thioether N-14): the IC50 turned out to be 10.9 nM.

For the compound `Cc1cccc(C[C@@H]2NC(=O)[C@H](CC(=O)O)NC(=O)[C@H](Cc3ccc(OCC(=O)O)cc3)NC(=O)[C@H](CCCNC(=N)N)NC(=O)CSC[C@@H](C(=O)N[C@@H](CCN)C(=O)NCCCCCCCCCCC(=O)O)NC(=O)[C@H]([C@@H](C)O)NC(=O)[C@H](C(C)C)NC(=O)[C@H](CC3CCCCC3)NC(=O)[C@H](CCN)NC(=O)[C@@H](CC(C)C)NC(=O)[C@H](CCCN)NC(=O)[C@H](Cc3ccc(OCC(=O)O)cc3)NC(=O)[C@H](Cc3ccc(-c4ccccc4)cc3)NC(=O)[C@H](C(C)(C)F)NC2=O)c1` [Compound 2123] ({CH2CO}-RY(Carboxymethyl)D[Phe(3-Me)][Val(3-F)][Bip]Y(Carboxymethyl)[Orn][dL][Dab][Cha]VTC[Dab][Aun]-OH; thioether N-14), the IC50 was 14.1 nM.
